PubChem BioAssay AID192 (DTP/NCI, 2004)
Several values for one entry are separate records, joined by “and”; a condition that tells them apart may be missing. Equal values may be shown once. Inconclusive results and toxic doses are left out. The calls were made as follows: active = survival T/C of 150% or more; inactive = T/C below 125% in these data.

Tested on: BDF1 mice, B16 melanoma ip, median survival T/C
Experiment: NCI In Vivo Anticancer Drug Screen. Data for tumor model B16 Melanoma (intraperitoneal) in B6D2F1 (BDF1) mice
Conditions: endpoint: median survival time, higher = longer survival
Summary of the method: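 Survival or tumor size is measured after treatment of tumor-bearing mice and normalised to the vehicle-treated control group.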

[1] = dose: 100.0 mg/kg/injection, schedule: Q01DX009 (ip), vehicle: Klucel (hydroxypropylcellulose) (HPC)
[2] = dose: 200.0 mg/kg/injection, schedule: Q01DX009 (ip), vehicle: Klucel (hydroxypropylcellulose) (HPC)
[3] = dose: 400.0 mg/kg/injection, schedule: Q01DX009 (ip), vehicle: Klucel (hydroxypropylcellulose) (HPC)
[4] = dose: 100.0 mg/kg/injection, schedule: Q01DX009 (ip), vehicle: saline with Tween-80
[5] = dose: 200.0 mg/kg/injection, schedule: Q01DX009 (ip), vehicle: saline with Tween-80
[6] = dose: 400.0 mg/kg/injection, schedule: Q01DX009 (ip), vehicle: saline with Tween-80
[7] = dose: 6.25 mg/kg/injection, schedule: Q01DX009 (ip), vehicle: saline with Tween-80
[8] = dose: 12.5 mg/kg/injection, schedule: Q01DX009 (ip), vehicle: saline with Tween-80
[9] = dose: 50.0 mg/kg/injection, schedule: Q01DX009 (ip), vehicle: saline with Tween-80
[10] = dose: 25.0 mg/kg/injection, schedule: Q01DX009 (ip), vehicle: Klucel (hydroxypropylcellulose) (HPC)
[11] = dose: 50.0 mg/kg/injection, schedule: Q01DX009 (ip), vehicle: Klucel (hydroxypropylcellulose) (HPC)
[12] = dose: 12.5 mg/kg/injection, schedule: Q01DX009 (ip), vehicle: Klucel (hydroxypropylcellulose) (HPC)
[13] = dose: 50.0 mg/kg/injection, schedule: Q04DX003 (ip), vehicle: Klucel (hydroxypropylcellulose) (HPC)
[14] = dose: 100.0 mg/kg/injection, schedule: Q04DX003 (ip), vehicle: Klucel (hydroxypropylcellulose) (HPC)
[15] = dose: 200.0 mg/kg/injection, schedule: Q04DX003 (ip), vehicle: Klucel (hydroxypropylcellulose) (HPC)

Measured: T/C

CC(=O)c1cccc(NC2C(N)C(NC(=O)N(C)C)(C(C)O)C(C)(O)C2(O)COC(=O)c2c(C)cccc2O)c1 (stereo not given)
inactive: dose: 0.3 mg/kg/injection, schedule: Q01DX009 (ip), vehicle: saline with Tween-80 115 % of control | dose: 0.3 mg/kg/injection, schedule: Q01DX009 (ip), vehicle: saline 113 % of control | dose: 0.5 mg/kg/injection, schedule: Q01DX009 (ip), vehicle: Klucel (hydroxypropylcellulose) (HPC) 116 % of control | dose: 0.6 mg/kg/injection, schedule: Q01DX009 (ip), vehicle: saline 113 % of control | dose: 1.0 mg/kg/injection, schedule: Q01DX009 (ip), vehicle: Klucel (hydroxypropylcellulose) (HPC) 113 % of control | dose: 1.2 mg/kg/injection, schedule: Q01DX009 (ip), vehicle: saline 122 % of control

O=C(OCOC(=O)c1ccccc1)c1ccccc1
inactive: [1] 120 % of control | [2] 106 % of control | [3] 114 % of control

O=C(NC(CO)C(=O)OCc1ccccc1)OCc1ccccc1 (stereo not given)
inactive: [4] 111 % of control | [5] 113 % of control | [6] 105 % of control

OC1CCCC2CCCNC12 (stereo not given)
inactive: dose: 3.12 mg/kg/injection, schedule: Q01DX009 (ip), vehicle: saline with Tween-80 100 % of control | [7] 108 % of control | [8] 99 % of control | dose: 25.0 mg/kg/injection, schedule: Q01DX009 (ip), vehicle: saline with Tween-80 96 % of control | [9] 96 % of control

CCOC(=O)C(C)C(=O)O (stereo not given)
inactive: dose: 12.5 mg/kg/injection, schedule: Q01DX009 (ip), vehicle: saline 116 % of control | dose: 25.0 mg/kg/injection, schedule: Q01DX009 (ip), vehicle: saline 101 % of control | [9] 99 % of control | dose: 50.0 mg/kg/injection, schedule: Q01DX009 (ip), vehicle: saline 98 % of control

CCOC(=O)c1c(N)[nH]c(SSc2[nH]c(N)c(C(=O)OCC)c2C(=O)OCC)c1C(=O)OCC
inactive: dose: 75.0 mg/kg/injection, schedule: Q01DX009 (ip), vehicle: saline 89 % of control | dose: 300.0 mg/kg/injection, schedule: Q01DX009 (ip), vehicle: saline 97 % of control

Nc1ccccc1SC1CC(=O)N(c2ccc(I)cc2)C1=O (stereo not given)
inactive: [8] 100 % of control | [10] 108 % of control | [11] 97 % of control | [9] 88 % of control | [1] 88 % of control and 100 % of control

CCCCCCCCCCCCCCCCCCNC(=O)Nc1ccccc1CC
inactive: [9] 86 % of control

COc1ccc(/C=C/c2ccc3ccccc3[n+]2C)c(OC)c1OC
inactive: dose: 2.5 mg/kg/injection, schedule: Q01DX009 (ip), vehicle: saline 104 % of control | dose: 5.0 mg/kg/injection, schedule: Q01DX009 (ip), vehicle: saline 113 % of control

O=C(NNCc1ccccc1)c1ccccn1
inactive: dose: 6.25 mg/kg/injection, schedule: Q01DX009 (ip), vehicle: Klucel (hydroxypropylcellulose) (HPC) 90 % of control | [10] 90 % of control | [11] 88 % of control and 100 % of control

CC(=O)OC(OC(C)=O)c1ccc([N+](=O)[O-])cc1
inactive: [4] 93 % of control | [5] 95 % of control | [6] 86 % of control

CCCC1CC[N-]CC1.CCCC1CC[N-]CC1.CCCC1CC[N-]CC1.CCCC1CC[N-]CC1.CS(C)=O.CS(C)=O.[Cl-].[Cl-].[Cl-].[Cl-].[Cl][Rh][Cl].[Rh+3]
inactive: dose: 1.56 mg/kg/injection, schedule: Q01DX009 (ip), vehicle: water 105 % of control | dose: 3.13 mg/kg/injection, schedule: Q01DX009 (ip), vehicle: water 107 % of control | dose: 6.25 mg/kg/injection, schedule: Q01DX009 (ip), vehicle: water 120 % of control | dose: 25.0 mg/kg/injection, schedule: Q01DX009 (ip), vehicle: water 124 % of control

Cc1c(Cl)cccc1NC(=O)c1cccc(C(=O)Nc2cccc(Cl)c2C)c1
inactive: [1] 106 % of control | [2] 103 % of control | [3] 93 % of control

CC1CCCN(C)C1 (stereo not given)
inactive: [11] 117 % of control | [1] 120 % of control

O=NN1CCNC1=O
inactive: dose: 1.5 mg/kg/injection, schedule: Q01DX009 (ip), vehicle: Klucel (hydroxypropylcellulose) (HPC) 98 % of control | dose: 3.0 mg/kg/injection, schedule: Q01DX009 (ip), vehicle: Klucel (hydroxypropylcellulose) (HPC) 110 % of control | dose: 6.0 mg/kg/injection, schedule: Q01DX009 (ip), vehicle: Klucel (hydroxypropylcellulose) (HPC) 101 % of control

CCC1OCC(C(Cl)CCl)O1 (stereo not given)
inactive: [12] 90 % of control and 97 % of control | [10] 88 % of control and 109 % of control | [11] 86 % of control and 97 % of control | [1] 94 % of control and 105 % of control | [2] 89 % of control and 117 % of control | [3] 105 % of control

O=C(NC(C(=O)O)c1ccccc1)OCc1ccccc1 (stereo not given)
inactive: [9] 97 % of control | [4] 98 % of control | [5] 98 % of control

CCOC(=O)C(=Cc1ccccc1Cl)C(=O)OCC
inactive: [13] 99 % of control | [14] 107 % of control | [15] 95 % of control

C(=NCCN1CCOCC1)=NC1CCCCC1
inactive: dose: 3.13 mg/kg/injection, schedule: Q01DX009 (ip), vehicle: saline with Tween-80 108 % of control | [7] 110 % of control | [8] 114 % of control

Cc1ccc(NC(=O)Nc2cccc3ccccc23)cc1Cl
inactive: [12] 94 % of control | [10] 88 % of control

O=[N+]([O-])c1cccc2ncccc12
inactive: [13] 100 % of control | [14] 97 % of control | [15] 91 % of control

COC(=O)C1C2CC3c4[nH]c5ccc(OC)cc5c4CCN3CC2CC(OC(=O)c2cc(OC)c(OC)c(OC)c2)C1OC (stereo not given)
inactive: dose: 0.17 mg/kg/injection, schedule: Q01DX009 (ip), vehicle: Klucel (hydroxypropylcellulose) (HPC) 88 % of control | dose: 0.35 mg/kg/injection, schedule: Q01DX009 (ip), vehicle: Klucel (hydroxypropylcellulose) (HPC) 110 % of control | dose: 1.42 mg/kg/injection, schedule: Q01DX009 (ip), vehicle: Klucel (hydroxypropylcellulose) (HPC) 91 % of control | dose: 2.85 mg/kg/injection, schedule: Q01DX009 (ip), vehicle: Klucel (hydroxypropylcellulose) (HPC) 89 % of control | dose: 22.81 mg/kg/injection, schedule: Q01DX009 (ip), vehicle: Klucel (hydroxypropylcellulose) (HPC) 100 % of control | dose: 45.62 mg/kg/injection, schedule: Q01DX009 (ip), vehicle: Klucel (hydroxypropylcellulose) (HPC) 98 % of control
